The term Inhibition denotes the change of the read-out against control, counted positive when it falls. A lower Inhibition goes with a response near the control.

Series [1] addresses Converting enzyme (EC 3.4.15.1) (Homo sapiens, UniProt P12821). Description: ACE-inhibition test (FAPGG decomposition, ΔOD at 340 nm; derived from Sigma Diagnostics method No. 305-UV). The class given is biochemical. Conditions: for ΔOD: 340 nm, mean of five tests. From the text: The test is derived from Sigma Diagnostics method No. 305-UV.
Converting enzyme (EC 3.4.15.1) decomposes synthetic tripeptide FAPGG into FAP+glycylglycine. The change in optical density (ΔOD) at 340 nm is directly proportional to disappearance of the FAPGG, which allows a quantification of the converting enzyme activity.
The inhibiting effect of a compound is investigated according to the same principle, but in the presence of various concentrations of the test compounds.

The test system of series [2] is Normal human keratinocytes and fibroblasts. Description: Cell viability by conventional MTT test. It counts as cell-based. The following applies: maximum concentration used (45 ppm). On the procedure:
Normal human keratinocytes and fibroblasts are cultured in a conventional medium in the presence or absence of various concentrations (10-45 ppm) of peptide Pal-GQPR (SEQ ID NO:2). After 24 hours the cells are rinsed in the same medium without Pal-GQPR (SEQ ID NO:2) and, after being subjected to irradiation of 35 mJ/cm^2, the same cells are returned to the culture for 48 hours, without Pal-GQPR (SEQ ID NO:2) or in its presence in the same concentrations as during the initial culture period. Cellular IL-6 is then determined using a standard ELISA test kit.
In parallel with this, to make certain that the concentration reductions observed were not due to cell mortality induced by the peptide itself, viability of the cells was verified by the conventional MTT test.
A general note: Formazan colour is commonly taken as a measure of viable cells.

The test system of a further series is T1, H-Val-Trp.
T1 sequence: VW

The target in series [3] is angiotensin converting enzyme (EC 3.4.15.1). Description: cell-based or functional assay.

Peptide text beside a SMILES is read from it. * marks the point of attachment. Palmitoyl = CCCCCCCCCCCCCCCC(=O)*

Converting enzyme (EC 3.4.15.1), sequence (P12821 30-1306): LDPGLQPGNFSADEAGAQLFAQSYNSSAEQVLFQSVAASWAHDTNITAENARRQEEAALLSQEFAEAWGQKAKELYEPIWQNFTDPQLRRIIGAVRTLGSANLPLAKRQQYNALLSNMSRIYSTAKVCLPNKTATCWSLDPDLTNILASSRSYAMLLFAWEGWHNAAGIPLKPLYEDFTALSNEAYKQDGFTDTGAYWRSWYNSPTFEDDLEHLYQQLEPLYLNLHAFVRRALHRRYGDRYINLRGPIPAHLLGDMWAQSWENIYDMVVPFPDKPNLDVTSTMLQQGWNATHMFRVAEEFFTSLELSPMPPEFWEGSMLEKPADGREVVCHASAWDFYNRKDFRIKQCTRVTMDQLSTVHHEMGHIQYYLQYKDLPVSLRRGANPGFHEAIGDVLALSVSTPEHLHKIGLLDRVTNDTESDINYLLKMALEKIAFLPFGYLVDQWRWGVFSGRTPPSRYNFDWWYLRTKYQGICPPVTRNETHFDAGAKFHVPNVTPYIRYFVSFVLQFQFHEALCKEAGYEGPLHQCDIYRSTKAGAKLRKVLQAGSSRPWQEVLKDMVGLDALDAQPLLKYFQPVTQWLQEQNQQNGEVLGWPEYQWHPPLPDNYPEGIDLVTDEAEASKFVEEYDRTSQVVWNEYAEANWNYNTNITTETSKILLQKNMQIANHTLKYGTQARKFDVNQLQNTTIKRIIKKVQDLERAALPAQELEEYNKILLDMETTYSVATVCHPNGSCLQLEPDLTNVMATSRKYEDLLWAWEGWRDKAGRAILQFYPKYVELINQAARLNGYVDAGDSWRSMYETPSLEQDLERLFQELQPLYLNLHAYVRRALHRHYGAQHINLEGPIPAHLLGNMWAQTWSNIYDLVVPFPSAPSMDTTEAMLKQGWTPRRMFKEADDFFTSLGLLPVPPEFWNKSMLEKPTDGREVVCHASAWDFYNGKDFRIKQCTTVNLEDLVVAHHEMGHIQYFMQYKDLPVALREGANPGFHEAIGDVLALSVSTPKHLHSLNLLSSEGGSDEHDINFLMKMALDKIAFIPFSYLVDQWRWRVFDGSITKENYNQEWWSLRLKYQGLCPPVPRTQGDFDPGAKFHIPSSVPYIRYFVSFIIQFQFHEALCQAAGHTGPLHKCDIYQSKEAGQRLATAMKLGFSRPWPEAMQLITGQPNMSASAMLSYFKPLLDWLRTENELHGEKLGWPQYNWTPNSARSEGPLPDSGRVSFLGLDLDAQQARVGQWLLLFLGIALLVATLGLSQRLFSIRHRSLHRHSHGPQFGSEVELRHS

As to H-Val-Trp, in series [1] (peptide 10 ppm), the Inhibition was 27.3% and the ΔOD was found to be 0.080. Further, in series [1] (peptide 50 ppm), the Inhibition is 83.4% and the ΔOD is 0.018.

Take `CCCCCCCCCCCCCCCC(=O)NCC(=O)N[C@@H](CCC(N)=O)C(=O)N1CCC[C@H]1C(=O)N[C@@H](CCCNC(=N)N)C(=O)O` [N-Palmitoyl-Gly-Gln-Pro-Arg] (Palmitoyl-GQPR-OH): in series [2], the “Cytotoxic effect (cell viability, MTT)” value was “does not exert any cytotoxic effect”.

On to “angiotensin converting enzyme (EC 3.4.15.1)”, for which, in the series on H-Val-Trp, the ΔOD (340 nm, FAPGG hydrolysis by converting enzyme), peptide at 10 ppm is 0.08 ΔOD and the ΔOD (340 nm, FAPGG hydrolysis by converting enzyme), peptide at 50 ppm was 0.018 ΔOD.

With H-Val-Trp (peptide), in series [3], the Inhibition (converting enzyme activity, FAPGG hydrolysis, ΔOD at 340 nm), peptide at 10 ppm is 27.3% and the Inhibition (converting enzyme activity, FAPGG hydrolysis, ΔOD at 340 nm), peptide at 50 ppm was 83.4%.

These data come from patent publication US7998493B2, “Cosmetic or dermopharmaceutical compositions which are used to reduce bags and circles under the eyes” (Sederma SAS, priority 2002, dated 2011).
